# Source: US20230391772A1, “METHODS AND COMPOSITIONS FOR TARGETED PROTEIN DEGRADATION” (Ranok Therapeutics (Hangzhou) Co. Ltd., priority 2020, published 2023)
# Columns and labels:
# [1] = tested on: MIA PaCa-2 human pancreatic carcinoma; assay: MIA PaCa-2 CCK-8 proliferation assay; assay type: cell-based; details: Homo sapiens, MIA PaCa-2, 72 h, MIA PaCa-2 cells
# Summary of the method: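 KRAS(G12C) lines were used: MIA PaCa-2 with 2 copies, and NCI-H358 and NCI-H23 with 1 copy each. Cells were treated with 3-fold compound dilutions from 20 μM to 1.02 nM, and proliferation was read by CCK-8 absorbance. % inhibition was calculated against DMSO-treated cells after subtracting the cell-free medium blank.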
# [2] = target: T1, HSP90a protein (Homo sapiens, UniProt P07900); assay: HSP90α-binding fluorescent polarization (FP) assay, BODIPY-labeled RNK04010 probe; details: FP competition with RNK04010 (BODIPY-labeled), 5 nM, 300 min at 25° C.
# T1 construct: purchased BPS Bioscience 50298
# Summary of the method: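 Binding was scored by fluorescence polarization after adding N-terminal HSP90a to wells holding probe and compound, with compound tested from 20 μM to 5.2 nM. Probe-dependent times at 25° C were 120 min for FITC-geldanamycin and 300 min for RNK04010-BODIPY, both at 5 nM final.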
# [3] = target: T2, KRAS(G12C) (Homo sapiens, UniProt P01116, G12C); assay: KRAS(G12C)/SOS1 homogeneous time-resolved fluorescence (HTRF) assay; parameters: purchased Cisbio 63ADK000CB16PEG; details: absence of GTP, 4° C. for 3 hr, read-out: KRAS (G12C) binding
# Summary of the method: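 Three-hour incubation at 4 °C of 3-fold compound dilutions (lowest 1.02 nM) with KRAS(G12C), SOS1 and detection reagents, GTP absent. Disruption of the KRAS(G12C)/SOS1 complex detected by time-resolved fluorescence.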
# [4] = target: T2, KRAS(G12C); assay: KRAS(G12C) Western blot protein degradation assay in LU65A cells; assay type: cell-based; parameters: LU65A human lung cancer cell line, which expresses KRAS(G12C); host or cells: LU65A; details: 6 hr
# Summary of the method: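 KRAS levels read by fluorescent Western blot (β-actin as reference) on BCA-normalized lysates. Exposure to a compound concentration range at 37 °C lasted 6 hr in LU65A and 48 hr in MIA PaCa-2; DC50 taken as half-maximal degradation concentration.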
# T2 sequence (P01116 1-188 isoform P01116-2 G12C): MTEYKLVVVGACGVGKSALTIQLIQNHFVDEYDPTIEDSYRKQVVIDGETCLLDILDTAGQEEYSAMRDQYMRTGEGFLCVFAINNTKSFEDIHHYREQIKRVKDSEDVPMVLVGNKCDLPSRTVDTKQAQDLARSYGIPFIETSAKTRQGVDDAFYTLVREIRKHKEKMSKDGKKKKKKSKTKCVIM
SMILES,EC50 [1],IC50 [2],IC50 [3],DC50 [4]
"C=CC(=O)N1CCN(c2nc(OCCN3CCN(C(=O)C4CCN(Cc5ccc(-n6c(C(=O)NCC(F)(F)F)nnc6-c6cc(C(C)C)c(O)cc6O)cc5)CC4)CC3)nc3c2CCN(c2cccc4cccc(Cl)c24)C3)C[C@@H]1CC#N [Compound 206, (S)-4-(4-((4-(4-(2-((4-(4-acryloyl-3-(cyanomethyl)piperazin-1-yl)-7-(8-chloronaphthalen-1-yl)-5,6,7,8-tetrahydropyrido[3,4-d]pyrimidin-2-yl)oxy)ethyl)piperazine-1-carbonyl)piperidin-1-yl)methyl)phenyl)-5-(2,4-dihydroxy-5-isopropylphenyl)-N-(2,2,2-trifluoroethyl)-4H-1,2,4-triazole-3-carboxamide, trifluoroacetic acid]",100 to 1000 nM,< 100 nM,100 to 1000 nM,> 1000 nM
"C=CC(=O)N1CCN(c2nc(OCCN3CCN(Cc4ccc(-n5c(O)nnc5-c5cc(C)c(O)cc5O)cc4)CC3)nc3c2CCN(c2cccc4cccc(Cl)c24)C3)C[C@@H]1CC#N [Compound 213, (S)-2-(1-acryloyl-4-(7-(8-chloronaphthalen-1-yl)-2-(2-(4-(4-(3-(2,4-dihydroxy-5-methylphenyl)-5-hydroxy-4H-1,2,4-triazol-4-yl)benzyl)piperazin-1-yl)ethoxy)-5,6,7,8-tetrahydropyrido[3,4-d]pyrimidin-4-yl)piperazin-2-yl)acetonitrile]",> 1000 nM,< 100 nM,100 to 1000 nM,> 1000 nM
"C=C(F)C(=O)N1CCN(c2nc(OCCN3CCN(C(=O)C4CCN(Cc5ccc(-n6c(O)nnc6-c6cc(C(C)C)c(O)cc6O)cc5)CC4)CC3)nc3c2CCN(c2cccc4cccc(Cl)c24)C3)C[C@@H]1CC#N [Compound 224, (S)-2-(4-(7-(8-chloronaphthalen-1-yl)-2-(2-(4-(1-(4-(3-(2,4-dihydroxy-5-isopropylphenyl)-5-hydroxy-4H-1,2,4-triazol-4-yl)benzyl)piperidine-4-carbonyl)piperazin-1-yl)ethoxy)-5,6,7,8-tetrahydropyrido[3,4-d]pyrimidin-4-yl)-1-(2-fluoroacryloyl)piperazin-2-yl)acetonitrile]",100 to 1000 nM,< 100 nM,> 1000 nM,> 1000 nM
"C=CC(=O)N1CCN(c2nc(OC[C@@H]3C[C@H](N4CCC(C(=O)N5CCN(Cc6ccc(-n7c(C(=O)NCC(F)(F)F)nnc7-c7cc(C)c(O)cc7O)cc6)CC5)CC4)CN3C)nc3c2CCN(c2cccc4cccc(Cl)c24)C3)C[C@@H]1CC#N [Compound 336, 4-{4-[(4-{1-[(3S,5S)-5-({[7-(8-chloronaphthalen-1-yl)-4-[(3S)-3-(cyanomethyl)-4-(prop-2-enoyl)piperazin-1-yl]-5H,6H,8H-pyrido[3,4-d]pyrimidin-2-yl]oxy}methyl)-1-methylpyrrolidin-3-yl]piperidine-4-carbonyl}piperazin-1-yl)methyl]phenyl}-5-(2,4-dihydroxy-5-methylphenyl)-N-(2,2,2-trifluoroethyl)-1,2,4-triazole-3-carbox-amide]",100 to 1000 nM,< 100 nM,< 100 nM,> 1000 nM
"C=CC(=O)N1CCN(c2nc(OC[C@@H]3C[C@H](N4CCC(C(=O)N5CCN(Cc6ccc(-n7c(O)nnc7-c7cc(CC)c(O)cc7O)cc6)CC5)CC4)CN3C)nc3c2CCN(c2cccc4cccc(Cl)c24)C3)C[C@@H]1CC#N [Compound 233, 2-[(2S)-4-[7-(8-chloronaphthalen-1-yl)-2-{[(2S,4S)-4-{4-[4-({4-[3-(5-ethyl-2,4-dihydroxyphenyl)-5-hydroxy-1,2,4-triazol-4-yl]phenyl}methyl)piperazine-1-carbonyl]piperidin-1-yl}-1-methylpyrrolidin-2-yl]methoxy}-5H,6H,8H-pyrido[3,4-d]pyrimidin-4-yl]-1-(prop-2-enoyl)piperazin-2-yl]acetonitrile]",> 1000 nM,< 100 nM,< 100 nM,> 1000 nM
"C=CC(=O)N1CCN(c2nc(OC[C@@H]3CC[C@H](CN4CCN(Cc5ccc(-n6c(O)nnc6-c6cc(C(C)C)c(O)cc6O)cc5)CC4)N3C)nc3c2CCN(c2cccc4cccc(Cl)c24)C3)C[C@@H]1CC#N [Compound 326, 2-[(2S)-4-[7-(8-chloronaphthalen-1-yl)-2-{[(2S,5R)-5-{[4-({4-[3-(2,4-dihydroxy-5-isopropylphenyl)-5-hydroxy-1,2,4-triazol-4-yl]-phenyl}methyl)piperazin-1-yl]methyl}-1-methylpyrrolidin-2-yl]methoxy}-5H,6H,8H-pyrido[3,4-d]pyrimidin-4-yl]-1-(prop-2-enoyl)piperazin-2-yl]acetonitrile]",100 to 1000 nM,< 100 nM,< 100 nM,100 to 1000 nM
"C=CC(=O)N1CCN(c2nc(OC[C@@H]3C[C@H](C(=O)N4CC5(CCN(Cc6ccc(-n7c(O)nnc7-c7cc(C(C)C)c(O)cc7O)cc6)CC5)C4)CN3C)nc3c2CCN(c2cccc4cccc(Cl)c24)C3)C[C@@H]1CC#N [Compound 230, 2-[(2S)-4-[7-(8-chloronaphthalen-1-yl)-2-{[(2S,4S)-4-[7-({4-[3-(2,4-dihydroxy-5-isopropylphenyl)-5-hydroxy-1,2,4-triazol-4-yl]phenyl}methyl)-2,7-diazaspiro[3.5]nonane-2-carbonyl]-1-methylpyrrolidin-2-yl]methoxy}-5H,6H,8H-pyrido[3,4-d]pyrimidin-4-yl]-1-(prop-2-enoyl)piperazin-2-yl]acetonitrile]",100 to 1000 nM,< 100 nM,< 100 nM,> 1000 nM
"C=CC(=O)N1CCN(c2nc(OCCN3CCN(Cc4ccc(-n5c(O)nnc5-c5cc(C(C)C)c(O)cc5O)cc4)CC3)nc3c2CCN(c2cccc4cccc(Cl)c24)C3)C[C@@H]1CC#N [Compound 351, 2-[(2S)-4-[7-(8-chloronaphthalen-1-yl)-2-{2-[4-({4-[3-(2,4-dihydroxy-5-isopropylphenyl)-5-hydroxy-1,2,4-triazol-4-yl]phenyl}methyl)piperazin-1-yl]ethoxy}-5H,6-H,8H-pyrido[3,4-d]pyrimidin-4-yl]-1-(prop-2-enoyl)piperazin-2-yl]acetonitrile]",100 to 1000 nM,< 100 nM,< 100 nM,100 to 1000 nM
"C=CC(=O)N1CCN(c2nc(OCCN3CCN(C(=O)C4CCN(Cc5ccc(-n6c(C(N)=O)nnc6-c6cc(C(C)C)c(O)cc6O)cc5)CC4)CC3)nc3c2CCN(c2cccc4cccc(Cl)c24)C3)C[C@@H]1CC#N [Compound 193, (S)-4-(4-((4-(4-(2-((4-(4-acryloyl-3-(cyanomethyl)piperazin-1-yl)-7-(8-chloronaphthalen-1-yl)-5,6,7,8-tetrahydropyrido[3,4-d]pyrimidin-2-yl)oxy)ethyl)piperazine-1-carbonyl)piperidin-1-yl)methyl)phenyl)-5-(2,4-dihydroxy-5-isopropylphenyl)-4H-1,2,4-triazole-3-carboxamide]",100 to 1000 nM,< 100 nM,< 100 nM,100 to 1000 nM
"C=CC(=O)N1CCN(c2nc(OCCN3CCN(C(=O)C4CCN(Cc5ccc(-n6c(O)nnc6-c6cc(C)c(O)cc6O)cc5)CC4)CC3)nc3c2CCN(c2cccc4cccc(Cl)c24)C3)C[C@@H]1CC#N [Compound 223, (S)-2-(1-acryloyl-4-(7-(8-chloronaphthalen-1-yl)-2-(2-(4-(1-(4-(3-(2,4-dihydroxy-5-methylphenyl)-5-hydroxy-4H-1,2,4-triazol-4-yl)benzyl)piperidine-4-carbonyl)piperazin-1-yl)ethoxy)-5,6,7,8-tetrahydropyrido[3,4-d]pyrimidin-4-yl)piperazin-2-yl)acetonitrile]",> 1000 nM,< 100 nM,< 100 nM,100 to 1000 nM
"C=CC(=O)N1CCN(c2nc(OC[C@@H]3C[C@H](C(=O)N4CCN(Cc5ccc(-n6c(C(=O)NCC(F)(F)F)nnc6-c6cc(C)c(O)cc6O)cc5)CC4)CN3C)nc3c2CCN(c2cccc4cccc(Cl)c24)C3)C[C@@H]1CC#N [Compound 347, 4-[4-({4-[(3S,5S)-5-({[7-(8-chloronaphthalen-1-yl)-4-[(3S)-3-(cyanomethyl)-4-(prop-2-enoyl)piperazin-1-yl]-5H,6H,8H-pyrido[3,4-d]pyrimidin-2-yl]oxy}methyl)-1-methylpyrrolidine-3-carbonyl]piperazin-1-yl}methyl)phenyl]-5-(2,4-dihydroxy-5-methylphenyl)-N-(2,2,2-trifluoroethyl)-1,2,4-triazole-3-carboxamide]",100 to 1000 nM,< 100 nM,< 100 nM,> 1000 nM
